According to the NIST ThermoML archive (doi:10.1021/je900596d):

Conditions: Vibrating tube method

FC(F)=C(F)C(F)(F)F [hexafluoropropene]
Conditions	mass density [kg/m3]
357.01 K, 9852.5 kPa, Liquid	1135.74
357.01 K, 9892.6 kPa, Liquid	1136.38
357.01 K, 9933 kPa, Liquid	1137.03
357.01 K, 9973.2 kPa, Liquid	1137.69
357.06 K, 1.6 kPa, Fluid (supercritical or subcritical phases)	0.18
357.06 K, 3.4 kPa, Fluid (supercritical or subcritical phases)	0.25
357.06 K, 4.2 kPa, Fluid (supercritical or subcritical phases)	0.26
357.06 K, 4.9 kPa, Fluid (supercritical or subcritical phases)	0.29
357.06 K, 6.3 kPa, Fluid (supercritical or subcritical phases)	0.31
357.06 K, 6.6 kPa, Fluid (supercritical or subcritical phases)	0.32
357.06 K, 7 kPa, Fluid (supercritical or subcritical phases)	0.35
357.06 K, 7.4 kPa, Fluid (supercritical or subcritical phases)	0.43
357.06 K, 9.1 kPa, Fluid (supercritical or subcritical phases)	0.47
357.06 K, 9.5 kPa, Fluid (supercritical or subcritical phases)	0.49
357.06 K, 11 kPa, Fluid (supercritical or subcritical phases)	0.56
357.06 K, 12.4 kPa, Fluid (supercritical or subcritical phases)	0.6
357.06 K, 13.5 kPa, Fluid (supercritical or subcritical phases)	0.66
357.06 K, 14.9 kPa, Fluid (supercritical or subcritical phases)	0.76
357.06 K, 15.9 kPa, Fluid (supercritical or subcritical phases)	0.79
357.06 K, 17 kPa, Fluid (supercritical or subcritical phases)	0.85
357.06 K, 19.1 kPa, Fluid (supercritical or subcritical phases)	0.98
357.06 K, 21.6 kPa, Fluid (supercritical or subcritical phases)	1.08
357.06 K, 22.7 kPa, Fluid (supercritical or subcritical phases)	1.11
357.06 K, 24 kPa, Fluid (supercritical or subcritical phases)	1.15
357.06 K, 25.1 kPa, Fluid (supercritical or subcritical phases)	1.25
357.06 K, 26.3 kPa, Fluid (supercritical or subcritical phases)	1.3
357.06 K, 27.3 kPa, Fluid (supercritical or subcritical phases)	1.36
357.06 K, 28.4 kPa, Fluid (supercritical or subcritical phases)	1.4
357.06 K, 29.7 kPa, Fluid (supercritical or subcritical phases)	1.46
357.06 K, 30.8 kPa, Fluid (supercritical or subcritical phases)	1.51
357.06 K, 31.8 kPa, Fluid (supercritical or subcritical phases)	1.61
357.06 K, 34 kPa, Fluid (supercritical or subcritical phases)	1.66
357.06 K, 35.1 kPa, Fluid (supercritical or subcritical phases)	1.71
357.06 K, 36.4 kPa, Fluid (supercritical or subcritical phases)	1.75
357.06 K, 37.5 kPa, Fluid (supercritical or subcritical phases)	1.84
357.06 K, 38.5 kPa, Fluid (supercritical or subcritical phases)	1.93
357.06 K, 39.6 kPa, Fluid (supercritical or subcritical phases)	1.96
357.06 K, 40.6 kPa, Fluid (supercritical or subcritical phases)	2.02
357.06 K, 48 kPa, Fluid (supercritical or subcritical phases)	2.38
357.06 K, 58.6 kPa, Fluid (supercritical or subcritical phases)	2.86
357.06 K, 69.5 kPa, Fluid (supercritical or subcritical phases)	3.37
357.06 K, 80.9 kPa, Fluid (supercritical or subcritical phases)	3.92
357.06 K, 92.8 kPa, Fluid (supercritical or subcritical phases)	4.57
357.06 K, 104.1 kPa, Fluid (supercritical or subcritical phases)	5.19
357.06 K, 115 kPa, Fluid (supercritical or subcritical phases)	5.66
357.06 K, 125.7 kPa, Fluid (supercritical or subcritical phases)	6.22
357.06 K, 136.4 kPa, Fluid (supercritical or subcritical phases)	6.83
357.06 K, 148.3 kPa, Fluid (supercritical or subcritical phases)	7.41
357.06 K, 159.2 kPa, Fluid (supercritical or subcritical phases)	8.05
357.06 K, 170 kPa, Fluid (supercritical or subcritical phases)	8.65
357.06 K, 180.8 kPa, Fluid (supercritical or subcritical phases)	9.19
357.06 K, 191.6 kPa, Fluid (supercritical or subcritical phases)	9.77
357.06 K, 206.8 kPa, Fluid (supercritical or subcritical phases)	10.67
357.06 K, 232.7 kPa, Fluid (supercritical or subcritical phases)	11.91
357.06 K, 245.6 kPa, Fluid (supercritical or subcritical phases)	12.63
357.06 K, 258.5 kPa, Fluid (supercritical or subcritical phases)	13.31
357.06 K, 271.2 kPa, Fluid (supercritical or subcritical phases)	14.01
357.06 K, 284 kPa, Fluid (supercritical or subcritical phases)	14.69
357.06 K, 296.8 kPa, Fluid (supercritical or subcritical phases)	15.39
357.06 K, 309.5 kPa, Fluid (supercritical or subcritical phases)	16.12
357.06 K, 322.1 kPa, Fluid (supercritical or subcritical phases)	16.71
357.06 K, 334.9 kPa, Fluid (supercritical or subcritical phases)	17.44
357.06 K, 347.5 kPa, Fluid (supercritical or subcritical phases)	18.11
357.06 K, 360.2 kPa, Fluid (supercritical or subcritical phases)	18.86
357.06 K, 372.7 kPa, Fluid (supercritical or subcritical phases)	19.48
357.06 K, 385.4 kPa, Fluid (supercritical or subcritical phases)	20.16
357.06 K, 401.9 kPa, Fluid (supercritical or subcritical phases)	21.1
357.06 K, 415.8 kPa, Fluid (supercritical or subcritical phases)	21.9
357.06 K, 430.3 kPa, Fluid (supercritical or subcritical phases)	22.74
357.06 K, 445 kPa, Fluid (supercritical or subcritical phases)	23.53
357.06 K, 459.8 kPa, Fluid (supercritical or subcritical phases)	24.37
357.06 K, 474.6 kPa, Fluid (supercritical or subcritical phases)	25.15
357.06 K, 489.6 kPa, Fluid (supercritical or subcritical phases)	26
357.06 K, 504.5 kPa, Fluid (supercritical or subcritical phases)	26.95
357.06 K, 519.5 kPa, Fluid (supercritical or subcritical phases)	27.84
357.06 K, 534.4 kPa, Fluid (supercritical or subcritical phases)	28.66
357.06 K, 549.4 kPa, Fluid (supercritical or subcritical phases)	29.55
357.06 K, 564.2 kPa, Fluid (supercritical or subcritical phases)	30.41
357.06 K, 579 kPa, Fluid (supercritical or subcritical phases)	31.28
357.06 K, 593.8 kPa, Fluid (supercritical or subcritical phases)	32.12
357.06 K, 604.8 kPa, Fluid (supercritical or subcritical phases)	32.81
357.06 K, 619.6 kPa, Fluid (supercritical or subcritical phases)	33.65
357.06 K, 634.3 kPa, Fluid (supercritical or subcritical phases)	34.49
357.06 K, 648.9 kPa, Fluid (supercritical or subcritical phases)	35.43
357.06 K, 663.4 kPa, Fluid (supercritical or subcritical phases)	36.27
357.06 K, 677.9 kPa, Fluid (supercritical or subcritical phases)	37.14
357.06 K, 692.4 kPa, Fluid (supercritical or subcritical phases)	37.98
357.06 K, 706.7 kPa, Fluid (supercritical or subcritical phases)	38.87
357.06 K, 721 kPa, Fluid (supercritical or subcritical phases)	39.69
357.06 K, 735.2 kPa, Fluid (supercritical or subcritical phases)	40.55
357.06 K, 749.2 kPa, Fluid (supercritical or subcritical phases)	41.45
357.06 K, 763.3 kPa, Fluid (supercritical or subcritical phases)	42.35
357.06 K, 777.3 kPa, Fluid (supercritical or subcritical phases)	43.14
357.06 K, 791.2 kPa, Fluid (supercritical or subcritical phases)	44.03
357.06 K, 805.1 kPa, Fluid (supercritical or subcritical phases)	44.87
357.06 K, 818.9 kPa, Fluid (supercritical or subcritical phases)	45.78
357.06 K, 832.6 kPa, Fluid (supercritical or subcritical phases)	46.65
357.06 K, 846.3 kPa, Fluid (supercritical or subcritical phases)	47.44
357.06 K, 859.8 kPa, Fluid (supercritical or subcritical phases)	48.34
357.06 K, 873.5 kPa, Fluid (supercritical or subcritical phases)	49.21
357.06 K, 887 kPa, Fluid (supercritical or subcritical phases)	50.07
357.06 K, 900.7 kPa, Fluid (supercritical or subcritical phases)	50.9
357.06 K, 927.4 kPa, Fluid (supercritical or subcritical phases)	52.68
357.06 K, 940.7 kPa, Fluid (supercritical or subcritical phases)	53.53
357.06 K, 953.9 kPa, Fluid (supercritical or subcritical phases)	54.39
357.06 K, 966.4 kPa, Fluid (supercritical or subcritical phases)	55.2
357.06 K, 980.4 kPa, Fluid (supercritical or subcritical phases)	56.19
357.06 K, 992.5 kPa, Fluid (supercritical or subcritical phases)	56.92
357.06 K, 1019.3 kPa, Fluid (supercritical or subcritical phases)	58.76
357.06 K, 1047.3 kPa, Fluid (supercritical or subcritical phases)	60.62
357.06 K, 1075 kPa, Fluid (supercritical or subcritical phases)	62.53
357.06 K, 1101.6 kPa, Fluid (supercritical or subcritical phases)	64.29
357.06 K, 1126.7 kPa, Fluid (supercritical or subcritical phases)	66.03
357.06 K, 1151 kPa, Fluid (supercritical or subcritical phases)	67.74
357.06 K, 1176.3 kPa, Fluid (supercritical or subcritical phases)	69.58
357.06 K, 1201.9 kPa, Fluid (supercritical or subcritical phases)	71.4
357.06 K, 1228.4 kPa, Fluid (supercritical or subcritical phases)	73.29
357.06 K, 1259 kPa, Fluid (supercritical or subcritical phases)	75.66
357.06 K, 1289.5 kPa, Fluid (supercritical or subcritical phases)	77.81
357.06 K, 1322.3 kPa, Fluid (supercritical or subcritical phases)	80.32
357.06 K, 1338.6 kPa, Fluid (supercritical or subcritical phases)	81.39
357.06 K, 1356.1 kPa, Fluid (supercritical or subcritical phases)	82.86
357.06 K, 1372.3 kPa, Fluid (supercritical or subcritical phases)	84.1
357.06 K, 1389.3 kPa, Fluid (supercritical or subcritical phases)	85.41
357.06 K, 1417.8 kPa, Fluid (supercritical or subcritical phases)	87.61
357.06 K, 1448.6 kPa, Fluid (supercritical or subcritical phases)	89.98
357.06 K, 1476.5 kPa, Fluid (supercritical or subcritical phases)	92.14
357.06 K, 1508.7 kPa, Fluid (supercritical or subcritical phases)	94.88
357.06 K, 1525.6 kPa, Fluid (supercritical or subcritical phases)	96.25
357.06 K, 1543.7 kPa, Fluid (supercritical or subcritical phases)	97.72
357.06 K, 1568 kPa, Fluid (supercritical or subcritical phases)	99.77
357.06 K, 1585.8 kPa, Fluid (supercritical or subcritical phases)	101.24
357.06 K, 1616.4 kPa, Fluid (supercritical or subcritical phases)	103.7
357.06 K, 1633.9 kPa, Fluid (supercritical or subcritical phases)	105.22
